Assay results from patent US10316049B2, “Tank-binding kinase inhibitor compounds” (Gilead Sciences, Inc., priority 2015, dated 2019).

Assays:
IKKε = biological target: T1, IKKε (Homo sapiens, UniProt Q14164); assay: TR-FRET enzymatic activity assay, IKKε; assay type: biochemical; details: read-out: IKKϵ IC50; also: full length recombinant IKKε at 0.3 nM
T1 construct: TBK1 and IKKε were expressed and purified as full length recombinant proteins; made in house
T1 sequence (Q14164 1-716): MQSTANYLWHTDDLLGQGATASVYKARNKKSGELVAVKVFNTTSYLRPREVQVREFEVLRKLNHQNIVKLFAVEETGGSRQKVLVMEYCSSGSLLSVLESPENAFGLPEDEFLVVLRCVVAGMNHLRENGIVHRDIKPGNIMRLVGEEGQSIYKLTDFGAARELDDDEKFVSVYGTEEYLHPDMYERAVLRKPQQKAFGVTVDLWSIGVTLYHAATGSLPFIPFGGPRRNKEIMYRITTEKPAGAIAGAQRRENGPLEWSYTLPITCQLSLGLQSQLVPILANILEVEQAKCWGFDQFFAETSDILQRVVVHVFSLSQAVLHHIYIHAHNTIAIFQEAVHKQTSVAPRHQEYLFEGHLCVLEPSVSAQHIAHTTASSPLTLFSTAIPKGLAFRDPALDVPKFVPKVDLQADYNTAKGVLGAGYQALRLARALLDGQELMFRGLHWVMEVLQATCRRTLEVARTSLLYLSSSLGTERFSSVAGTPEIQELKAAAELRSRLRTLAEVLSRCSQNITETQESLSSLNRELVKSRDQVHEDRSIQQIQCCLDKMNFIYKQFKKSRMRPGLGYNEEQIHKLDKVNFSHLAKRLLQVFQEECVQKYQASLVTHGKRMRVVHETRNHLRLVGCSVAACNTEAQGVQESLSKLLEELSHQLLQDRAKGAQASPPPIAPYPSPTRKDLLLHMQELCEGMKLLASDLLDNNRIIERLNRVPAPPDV
Procedure, shortened: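 IC50 values are geometric means of at least four determinations, fitted to a four-parameter curve after normalising to 1 μM staurosporine and DMSO. Signal: Eu-cryptate anti-phospho antibody plus 125 nM streptavidin-XL665 on a biotinylated peptide. Full-length recombinant enzyme reacted 240 min, 25 °C, then EDTA-quenched.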

TBK1 = biological target: T2, TBK1 (Homo sapiens, UniProt Q9UHD2); assay: TR-FRET enzymatic activity assay, TBK1; assay type: biochemical; also: full length recombinant TBK1 at 2.5 nM
T2 construct: TBK1 and IKKε were expressed and purified as full length recombinant proteins; made in house
T2 sequence (Q9UHD2 1-729): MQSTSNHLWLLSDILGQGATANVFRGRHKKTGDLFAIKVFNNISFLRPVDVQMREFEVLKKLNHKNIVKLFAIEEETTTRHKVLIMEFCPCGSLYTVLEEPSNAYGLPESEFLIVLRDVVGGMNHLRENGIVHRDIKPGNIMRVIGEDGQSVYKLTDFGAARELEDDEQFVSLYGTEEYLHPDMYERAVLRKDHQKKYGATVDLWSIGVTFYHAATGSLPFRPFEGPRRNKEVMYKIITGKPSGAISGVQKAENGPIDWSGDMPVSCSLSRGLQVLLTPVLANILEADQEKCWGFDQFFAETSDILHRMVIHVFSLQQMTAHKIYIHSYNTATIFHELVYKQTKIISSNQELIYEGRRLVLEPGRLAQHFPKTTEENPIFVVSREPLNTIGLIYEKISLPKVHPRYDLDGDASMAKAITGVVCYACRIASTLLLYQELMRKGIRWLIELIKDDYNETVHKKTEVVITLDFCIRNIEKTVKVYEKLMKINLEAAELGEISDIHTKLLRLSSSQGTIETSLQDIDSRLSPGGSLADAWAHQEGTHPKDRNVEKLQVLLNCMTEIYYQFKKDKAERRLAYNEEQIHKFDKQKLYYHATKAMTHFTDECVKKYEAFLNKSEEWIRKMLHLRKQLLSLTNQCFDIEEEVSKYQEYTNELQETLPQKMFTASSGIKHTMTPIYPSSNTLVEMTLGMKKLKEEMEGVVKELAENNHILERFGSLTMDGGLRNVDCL
Procedure, shortened: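 TR-FRET detected phosphorylation of a biotinylated serine/threonine peptide using 125 nM streptavidin XL665 plus europium-labelled anti-phospho antibody. Reactions with full-length recombinant kinase ran 240 min at 25 °C before EDTA quench. Values are geometric-mean IC50s (n ≥ 4) from four-parameter dose-response fits against staurosporine and DMSO controls.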

Row | SMILES | IC50 (IKKε) [nM] | IC50 (TBK1) [nM]
1 | N#Cc1cc(-c2ccnc(NC(=O)C3C4CC3C4C(N)=O)c2)ccc1OC1CCOCC1 (stereo not shown) [Example 56, N-(4-(3-cyano-4-((tetrahydro-2H-pyran-4-yl)oxy)phenyl)pyridin-2-yl)bicyclo[1.1.1]pentane-2,4-dicarboxamide] | 444 | > 1000
2 | N#Cc1cc(-c2ccnc(NC(=O)C3(C#N)CC3)c2)ccc1O[C@H]1CCN(C(=O)CO)C[C@H]1F [Example 63, 1-Cyano-N-(4-(3-cyano-4-(((3R,4S)-3-fluoro-1-(2-hydroxyacetyl)piperidin-4-yl)oxy)phenyl)pyridin-2-yl)cyclopropane-1-carboxamide] | > 1000 | > 1000
3 | N#Cc1cc(-c2ccnc(NC(=O)[C@H]3C[C@H]3F)c2)ccc1N1CCCC1 [Example 64, (1R,2R)—N-(4-(3-cyano-4-(pyrrolidin-1-yl)phenyl)pyridin-2-yl)-2-fluorocyclopropane-1-carboxamide] | 578 | 85.3
4 | N#Cc1cc(-c2ccnc(NC(=O)[C@H]3C[C@H]3F)c2)ccc1N1CCC(O)CC1 [Example 65, (1R,2R)—N-(4-(3-cyano-4-(4-hydroxypiperidin-1-yl)phenyl)pyridin-2-yl)-2-fluorocyclopropane-1-carboxamide] | > 1000 | 470
5 | N#Cc1cc(-c2ccnc(NC(=O)C3CC3C(F)(F)F)c2)ccc1O[C@H]1CCN(C(=O)CO)C[C@H]1F (stereo partly drawn) [Example 66, N-(4-(3-Cyano-4-(((3R,4S)-3-fluoro-1-(2-hydroxyacetyl)piperidin-4-yl)oxy)phenyl)pyridin-2-yl)-2-(trifluoromethyl)cyclopropane-1-carboxamide] | 108 | 28.3
6 | N#Cc1cc(-c2ccnc(NC(=O)C3CC3C#N)c2)ccc1O[C@H]1CCN(C(=O)CO)C[C@H]1F (stereo partly drawn) [Example 67, 2-Cyano-N-(4-(3-cyano-4-(((3R,4S)-3-fluoro-1-(2-hydroxyacetyl)piperidin-4-yl)oxy)phenyl)pyridin-2-yl)cyclopropane-1-carboxamide] | 68.4 | 26.1
7 | COCC(=O)N1CC[C@H](Oc2ccc(-c3ccnc(NC(=O)[C@H]4C[C@@H]4F)c3)cc2C#N)[C@H](F)C1 [Example 68, (1,2-trans)-N-(4-(3-Cyano-4-(((3R,4S)-3-fluoro-1-(2-methoxyacetyl)piperidin-4-yl)oxy)phenyl)pyridin-2-yl)-2-fluorocyclopropane-1-carboxamide] | 87.8 | 34.2
8 | CC1(C)C[C@@H]1C(=O)Nc1cc(-c2ccc(O[C@H]3CCN(C(=O)CO)C[C@H]3F)c(C#N)c2)ccn1 [Example 69, (S)—N-(4-(3-Cyano-4-(((3R,4S)-3-fluoro-1-(2-hydroxyacetyl)piperidin-4-yl)oxy)phenyl)pyridin-2-yl)-2,2-dimethylcyclopropane-1-carboxamide] | 133 | 43.9
9 | N#Cc1cc(-c2ccnc(NC(=O)[C@@H]3C[C@@H]3C(=O)O)c2)ccc1O[C@H]1CCN(C(=O)CO)C[C@H]1F [Example 73, (1,2-cis)-2-((4-(3-cyano-4-(((3R,4S)-3-fluoro-1-(2-hydroxyacetyl)piperidin-4-yl)oxy)phenyl)pyridin-2-yl)carbamoyl)cyclopropane-1-carboxylic acid] | > 1000 | 740
10 | N#Cc1cc(-c2ccnc(NC(=O)[C@@H]3C[C@@H]3CO)c2)ccc1O[C@H]1CCN(C(=O)CO)C[C@H]1F [Example 74, (1,2-cis)-N-(4-(3-Cyano-4-(((3R,4S)-3-fluoro-1-(2-hydroxyacetyl)piperidin-4-yl)oxy)phenyl)pyridin-2-yl)-2-(hydroxymethyl)cyclopropane-1-carboxamide] | 145 | 99.3
11 | N#Cc1cc(-c2ccnc(NC(=O)C3CC3c3nc[nH]n3)c2)ccc1O[C@H]1CCN(C(=O)CO)C[C@H]1F (stereo partly drawn) [Example 76, N-(4-(3-Cyano-4-(((3R,4S)-3-fluoro-1-(2-hydroxyacetyl)piperidin-4-yl)oxy)phenyl)pyridin-2-yl)-2-(1H-1,2,4-triazol-3-yl)cyclopropane-1-carboxamide] | 357 | 256

The next molecules have a lower IC50 (IKKε) than those just listed; values first:

Row | IC50 (IKKε) [nM] | IC50 (TBK1) [nM] | SMILES
12 | 26.2 | 17 | N#Cc1cc(-c2ccnc(NC(=O)C3C[C@@H]3F)c2)ccc1O[C@H]1CCN(C(=O)CO)C[C@H]1F (stereo partly drawn) [Example 57, (1,2-trans)-N-(4-(3-cyano-4-(((3R,4S)-3-fluoro-1-(2-hydroxyacetyl)piperidin-4-yl)oxy)phenyl)pyridin-2-yl)-2-fluorocyclopropane-1-carboxamide]
13 | 30.1 | 48.6 | N#Cc1cc(-c2ccnc(NC(=O)C3CC3(F)F)c2)ccc1O[C@H]1CCN(C(=O)CO)C[C@H]1F (stereo partly drawn) [Example 58, N-(4-(3-cyano-4-(((3R,4S)-3-fluoro-1-(2-hydroxyacetyl)piperidin-4-yl)oxy)phenyl)pyridin-2-yl)-2,2-difluorocyclopropane-1-carboxamide]
14 | 39.7 | 33.8 | N#Cc1cc(-c2ccnc(NC(=O)[C@H]3C[C@H]3F)c2)ccc1O[C@H]1CCN(C(=O)CO)C[C@H]1F [Example 59, (1R,2R)—N-(4-(3-cyano-4-(((3R,4S)-3-fluoro-1-(2-hydroxyacetyl)piperidin-4-yl)oxy)phenyl)pyridin-2-yl)-2-fluorocyclopropanecarboxamide]
15 | 46.3 | 15.7 | N#Cc1cc(-c2ccnc(NC(=O)[C@H]3C[C@@H]3F)c2)ccc1O[C@H]1CCN(C(=O)CO)C[C@H]1F [Example 60, (1R,2S)—N-(4-(3-cyano-4-(((3R,4S)-3-fluoro-1-(2-hydroxyacetyl)piperidin-4-yl)oxy)phenyl)pyridin-2-yl)-2-fluorocyclopropanecarboxamide]
16 | 32.2 | 16.4 | N#Cc1cc(-c2ccnc(NC(=O)[C@@H]3C[C@@H]3F)c2)ccc1O[C@H]1CCN(C(=O)CO)C[C@H]1F [Example 61, (1S,2S)—N-(4-(3-cyano-4-(((3R,4S)-3-fluoro-1-(2-hydroxyacetyl)piperidin-4-yl)oxy)phenyl)pyridin-2-yl)-2-fluorocyclopropanecarboxamide]
17 | 16.2 | 16.7 | N#Cc1cc(-c2ccnc(NC(=O)[C@@H]3C[C@H]3F)c2)ccc1O[C@H]1CCN(C(=O)CO)C[C@H]1F [Example 62, (1S,2R)—N-(4-(3-cyano-4-(((3R,4S)-3-fluoro-1-(2-hydroxyacetyl)piperidin-4-yl)oxy)phenyl)pyridin-2-yl)-2-fluorocyclopropanecarboxamide]
18 | 26.1 | 8.9 | CC1CC1C(=O)Nc1cc(-c2ccc(O[C@H]3CCN(C(=O)CO)C[C@H]3F)c(C#N)c2)ccn1 (stereo partly drawn) [Example 70, N-(4-(3-Cyano-4-(((3R,4S)-3-fluoro-1-(2-hydroxyacetyl)piperidin-4-yl)oxy)phenyl)pyridin-2-yl)-2-methylcyclopropanecarboxamide]
19 | 43.7 | 16.5 | C[C@@H]1C[C@H]1C(=O)Nc1cc(-c2ccc(O[C@H]3CCN(C(=O)CO)C[C@H]3F)c(C#N)c2)ccn1 [Example 72, (1R,2R)—N-(4-(3-cyano-4-(((3R,4S)-3-fluoro-1-(2-hydroxyacetyl)piperidin-4-yl)oxy)phenyl)pyridin-2-yl)-2-methylcyclopropane-1-carboxamide]
20 | 7.1 | 6.1 | Cc1n[nH]c(C(=O)N2CC[C@H](Oc3ccc(-c4ccnc(NC(=O)C5CC5C)c4)cc3C#N)[C@H](F)C2)n1 (stereo partly drawn) [Example 75, N-(4-(3-Cyano-4-(((3R,4S)-3-fluoro-1-(3-methyl-1H-1,2,4-triazole-5-carbonyl)piperidin-4-yl)oxy)phenyl)pyridin-2-yl)-2-methylcyclopropane-1-carboxamide]
